Results: patent US11926837B2, “Compositions and methods for controlling plant growth” (PLANTARC BIO LTD., priority 2019, dated 2024)

Tests used:
[1] = system: Arabidopsis plants transformed with Trichoderma spp-HPPD gene; test: In-planta screen of plants transformed with fungal HPPD; format: in vivo
Description: The hppd coding region was cloned into pPA35H binary vector under the control of the CaMV35S constitutive promoter and HSP terminator and was used to transform Arabidopsis plants using agrobacterium according to the dipping flower method, as essentially described in WO 2018/178975. […] 3-4 days post germination, plants were treated with 0.1% and 0.05% Tembotrione (Laudis (Bayer)). HPPD resistant plants were detected one-week post germination.

[2] = system: Arabidopsis control (wt, non-transformed) plants; test: In-planta screen, control (non-transformed, wt) plants; format: in vivo
Source text: The hppd coding region was cloned into pPA35H binary vector under the control of the CaMV35S constitutive promoter and HSP terminator and was used to transform Arabidopsis plants using agrobacterium according to the dipping flower method, as essentially described in WO 2018/178975. T1 generation transformed seeds were germinated on Basta selection (Bayer) according to manufacturer instructions. […] HPPD resistant plants were detected one-week post germination.

[3] = system: HPPD derived from the novel Trichoderma fungus (TP); test: Bacterial HPPD-activity assay, E. coli BL21 (DE3) transformed with Trichoderma HPPD, brown halo; format: cell-based, Trichoderma spp.; details: E. coli BL21 (DE3) on agar screen plates, 25° C., 4 days
[4] = target: T1, Arabidopsis thaliana HPPD (AtHPPD) (Arabidopsis thaliana, UniProt P93836); test: Bacterial HPPD-activity assay, E. coli BL21 (DE3) transformed with Arabidopsis thaliana hppd cDNA; format: cell-based; details: E. coli BL21 (DE3) on agar plates with concentration gradient of HPPD inhibitors, 25° C., 4 days
T1 construct: expressed in transfected cells; host or cells: E. coli BL21 (DE3), pET16 vector
T1 sequence (P93836 1-445): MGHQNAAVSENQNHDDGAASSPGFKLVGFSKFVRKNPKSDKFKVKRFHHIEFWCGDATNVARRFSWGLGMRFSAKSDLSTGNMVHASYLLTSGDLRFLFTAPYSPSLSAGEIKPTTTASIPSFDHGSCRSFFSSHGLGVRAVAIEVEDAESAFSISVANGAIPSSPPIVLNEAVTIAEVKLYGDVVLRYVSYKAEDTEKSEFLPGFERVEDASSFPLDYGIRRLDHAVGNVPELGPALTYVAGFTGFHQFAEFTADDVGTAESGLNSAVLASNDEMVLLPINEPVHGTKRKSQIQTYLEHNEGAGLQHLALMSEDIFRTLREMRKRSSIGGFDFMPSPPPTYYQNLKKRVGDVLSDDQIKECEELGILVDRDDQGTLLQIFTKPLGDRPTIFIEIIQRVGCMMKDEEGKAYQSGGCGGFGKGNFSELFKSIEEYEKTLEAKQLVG

G. max HPPD = test: HPPD-activity screen of soy HPPD mutants in E. coli BL21 (DE3); format: cell-based
Source text: A brown halo is indicative of HPPD activity • GmHPPD SEQ ID NO: 118 ([…] […] […] […] […] […] […] AADVLTVDQIKQCEELGILVDRDDQGTLLQIFTKPVGDRPTIFIXIIQRIGC […]), the native G. max HPPD (Accession number: ABQ96868) • GmHPPD.1=GmHPPD (SEQ ID NO: 118) mutated to substitute its motif 1 with motif 1 of SEQ ID NO: 1—i.e. to include amino acid sequences SEQ ID NO: 9-10 or 38; • GmHPPD.2=GmHPPD (SEQ ID NO: 118) mutated to substitute its motif 6.2 (SEQ ID NO: 68) first Y with motif 6.2 of SEQ ID NO: 1 (SEQ ID NO: 20)—i.e. to include the mutation Tyr185Phe to include SEQ ID NO: 157; • GmHPPD.4=GmHPPD (SEQ ID NO: 118) mutated to substitute its motif 2.1 (SEQ ID NO: 57) with motif 2.1 of SEQ ID NO: 1 (SEQ ID NO: 11)—i.e. to include the mutation Ala254Trp to include SEQ ID NO: 129.

Camelina plants = test: In-planta screen of soy HPPD mutants; format: in vivo; details: T1 Camelina, Laudis (Tembotrione) 0.075% three days post seeding, images 19 days post treatment
Description: T1 generation transformed seeds of Camelina plants with the Soy HPPD (GmHPPD) mutated gene as compared to wt. Plant were treated with Laudis (Tembotrione) 0.075% three days post seeding. EGFP transformed plants were used as control. Images taken 19 days post treatment. The following were tested: • GmHPPD—SEQ ID NO: 118 the native G. max HPPD (Accession number: ABQ96868) • GmHPPD.1=GmHPPD (SEQ ID NO: 118) mutated to substitute its motif 1 with motif 1 of SEQ ID NO: 1—i.e. to include amino acid sequences set forth in SEQ ID NO: 9-10 or 38; • GmHPPD.2=GmHPPD (SEQ ID NO: 118) mutated to substitute its motif 6.2 (SEQ ID NO: 68) first Y with motif 6.2 of SEQ ID NO: 1 (SEQ ID NO: 20)—i.e. to include the mutation Tyr185Phe to include SEQ ID NO: 157; • GmHPPD.3=GmHPPD (SEQ ID NO: 118) mutated to substitute its motif 7.2 (SEQ ID NO: 70) first Y with motif 7.2 of SEQ ID NO: 1 (SEQ ID NO: 22)—i.e. to include the mutation Tyr243Phe; • GmHPPD.4=GmHPPD (SEQ ID NO: 118) mutated to substitute its motif 2.1 (SEQ ID NO: 57) with motif 2.1 of SEQ ID NO: 1 (SEQ ID NO: 11)—i.e. to include the mutation Ala254Trp to include SEQ ID NO: 129; • GmHPPD.5=GmHPPD (SEQ ID NO: 118) mutated to substitute its motif 3.1 with motif 3.1 of SEQ ID NO: 1—i.e. to include the replacement mutations 338-MPSPPP-343 to INVPG.

[5] = T2 generation, Tembotrione x1=2500 and x0.2=500 μg/ml, Mesotrione x1=50 μg/ml, Topramezon x1=150 and x0.2=30 μg/ml, Isoxaflutole x1=50 μg/ml
[6] = control (wt plants), Tembotrione 2500 and 500 μg/ml, Mesotrione 50 μg/ml, Topramezon 150 and 30 μg/ml, Isoxaflutole 50 μg/ml

For `CS(=O)(=O)c1ccc(C(=O)C2C(=O)CCCC2=O)c([N+](=O)[O-])c1` [Mesotrione, mesotrione], the “plant growth in the presence of the herbicide” value (from here on “plant growth in the presence”) [1, 5] was “enabled growth” and the “plant growth in the presence” value [2, 6] was “no plant growth or an acute growth inhibition and leaf bleaching”.

In the case of `Cc1nn(C)c(OCC(=O)c2ccccc2)c1C(=O)c1ccc(Cl)cc1Cl` [Pyrazoxyfen, pyrazoxyfen], the “HPPD inhibitor concentration on plates at which HPPD activity (brown halo) was still detected” value [3] is reported as at most 1250 µg/mL.

In the case of `CS(=O)(=O)c1ccc(C(=O)C2C(=O)CCCC2=O)c(Cl)c1COCC(F)(F)F` [Tembotrione, tembotrione], the “plant growth in the presence” value ([1]; T1 plants on Basta selection, 0.1% and 0.05% Tembotrione (Laudis) 3-4 days post germination) is reported as “enabled growth”, the “plant growth in the presence” value [1, 5] is reported as “enabled growth” and the “plant growth in the presence” value ([2]; control (non-transformed), 0.1% and 0.05% Tembotrione (Laudis)) is reported as “no plant growth”. For the same molecule, the “plant growth in the presence” value [2, 6] was “no plant growth or an acute growth inhibition and leaf bleaching”.

With `CS(=O)(=O)c1cc(C(F)(F)F)ccc1C(=O)c1cnoc1C1CC1` [Isoxaflutole, isoxaflutole] the “plant growth in the presence” value [1, 5] was “enabled growth” and the “plant growth in the presence” value [2, 6] was “no plant growth or an acute growth inhibition and leaf bleaching”.

For `Cc1c(C(=O)c2cnn(C)c2O)ccc(S(C)(=O)=O)c1C1=NOCC1` [Topramezone, topramezone], the “plant growth in the presence” value [1, 5] was “enabled growth” and the “plant growth in the presence” value [2, 6] was “no plant growth or an acute growth inhibition and leaf bleaching”.

B1: AtHPPD: HPPD from Arabidopsis thaliana hppd cDNA (accession no. AF047834) (protein, UniProt P93836 1-445, looked up)
4-hydroxyphenylpyruvate …: T1 sequence (P93836 1-445)
B1 was tested, and the “HPPD activity (brown halo) on HPPD inhibitor plates” value [4] was “poor HPPD activity if at all”.

B2: GmHPPD: the native G. max HPPD (Accession number: ABQ96868) (protein)
chain: MPIPCNEIQAQAQAQAQPGFKLVGFKNFVRTNPKSDRFQVNRFHHIEFWCTDATNASRRFSWGLGMPIVAKSDLSTGNQIHASYLLRSGDLSFLFSAPYSPSLSAGSSAASSASIPSFDAATCLAFAAKHGFGVRAIALEVADAEAAFSASVAKGAEPASPPVLVDDRTGFAEVRLYGDVVLRYVSYKDAAPQAPHADPSRWFLPGFEAAASSSSFPELDYGIRRLDHAVGNVPELAPAVRYLKGFSGFHEFAEFTAEDVGTSESGLNSVVLANNSETVLLPLNEPVYGTKRKSQIETYLEHNEGAGVQHLALVTHDIFTTLREMRKRSFLGGFEFMPSPPPTYYANLHNRAADVLTVDQIKQCEELGILVDRDDQGTLLQIFTKPVGDRPTIFIXIIQRIGCMVEDEEGKVYQKGACGGFGKGNFSELFKSIEEYEKTLEAKRTA
modifications: not fully specified; X: residue not identified in the source
B2 was tested, and the “HPPD enzymatic activity (brown halo)” value (G. max HPPD; 5 μM tembotrione) was “only minor enzymatic activity”, the “HPPD enzymatic activity (brown halo)” value (G. max HPPD; 10 μM tembotrione) was “essentially no enzymatic activity” and the “herbicide tolerance of transformed plants” value (Camelina plants) was “highly damaged”.
